According to the NIST ThermoML archive (doi:10.1016/j.fluid.2012.05.003):
Numbers after ± are expanded uncertainties.

Conditions: Crystal; DTA

O=C(O)CNCP(=O)(O)O [(phosphonomethyl)glycine]
Normal melting temperature: 214.7 ± 0.5 °C
